Data set [1] deals with human colon cancer lines. Set-up: method as in PMID 26641132. Particulars: several human colon cancer lines; cited from earlier work.
The test system of data set [2] is HeLa cells. The data set can be described thus: Annexin V apoptosis assay and cell-fate tracking in HeLa cells. Particulars: 20 nM; for apoptosis at the 30 hour time point (Annexin V fluorescence): 6 biological replicates, one-way ANOVA amongst compounds; for total numbers of cells that died following mitotic arrest: single-cell tracking, >130 cells per treatment. The format is cell-based, Human. How it is done:
To directly assess apoptosis in living cells, HeLa cells were plated (six biological replicates per condition) in 96-well Imagelock Plates (Sartorius BA-04855) at a density of 1,562.5 cells/cm^2. The following day, cells were placed in media containing IncuCyte Annexin V Dye (Sartorius 4642) supplemented with either 0.1% Dimethyl sulfoxide or test compounds (20 nM), and plates were placed in a Sartorius Incucyte S3 live cell imaging system. Plates were scanned hourly, with phase contrast and green fluorescence images were acquired at three positions per well. Raw fluorescence data was processed using Incucyte software, and Prism Graphpad was used for data visualization and statistical analysis. To track individual cell fates, combined phase contrast/fluorescence time lapse sequences were exported from multiple wells per condition, and cell fates individual cells were scored and tabulated using Graphpad Prism software.

Data set [3] has as its system PNT1A cells. Description: MTT cytotoxicity assay against normal epithelial cell line PNT1A. The class given is cell-based. As to conditions: Homo sapiens, PNT1A. How it is done: (§1) The 3-(4,5-dimethylthiazol-2-yl)-2,5-diphenyltetrazolium bromide (MTT) assay was employed to evaluate the antiproliferative activities of the synthesized 7-deazahypoxathine analogues. The HeLa, PNT1A, or PANC-1 cell lines were assessed by trypsinizing and seeding 4 × 10^3 cells per well into 96-well plates. Synthesized compounds were dissolved in DMSO at a concentration of either 50 mM or 100 mM before cell treatment. Cells were grown for 24 h and then treated with compounds at concentrations ranging from 0.04 to 100 μM and incubated for 48 h in 200 μL media. Twenty microliters of MTT reagent in serum-free medium (5 mg/mL) was added to each well and incubated further for 2 h. Media was removed and the resulting formazan crystals were resolubilized in 200 μL of DMSO. A Thermomax Molecular Device plate reader was utilized to measure A490. Experiments were performed in quadruplicate and repeated at least twice for each compound. The control comprised of cells treated with 0.1% DMSO. One micromolar phenyl arsine oxide (PAO) was utilized as a positive killing control.

In data set [4] the test system is MCF-7 cells. Details: method as in PMID 26641132. Particulars: cited from earlier work.
In data set [5] the test system is WI38 embryonic lung fibroblast cell line. Details: method as in PMID 26641132. Particulars: fold less active; cited from earlier work.
In data set [6] the test system is colon cancer. Set-up: method as in PMID 26641132. As to conditions: mouse model for colon cancer, 3 mg/kg; cited from earlier work.
The test system of data set [7] is HeLa cells. Description: MTT antiproliferative assay against HeLa cells. The class given is cell-based, Human. Particulars: Homo sapiens, MTT, 48 h, average and SD from two independent determinations, each in quadruplicate (footnote c), read-out: GI50 (μM) ± SD. The method, then:
as §1, with “control. […]” for “control.”

In data set [8] the test system is PANC-1 cells. The data set can be described thus: MTT cytotoxicity assay against PANC-1 cells. The format is cell-based. Particulars: Homo sapiens; PANC-1 cell line. The method, then:
as §1

For data set [9], the target named is T1, tubulin (Sus scrofa, UniProt P02554).
T1 construct: purchased Cytoskeleton, Inc
The data set can be described thus: Fluorescence-based tubulin polymerization assay. The format is biochemical. As to conditions: 25 μM, relative to 1% DMSO control, averaged from two experiments. The method, then:
The fluorescence-based tubulin polymerization assay from Cytoskeleton, Inc. was used. […] The tubulin reaction mixture was prepared per manufacturer’s instructions, kept on ice, and used within ∼15 min of preparation. A Biotek Synergy H4 hybrid multimode plate reader was preheated to 37 °C. Prior to starting the assay, a half-area black 96-well plate was preheated within the plate reader. A volume of 5 μL of each of the tested samples was pipetted into separate wells of the plate and incubated in the warm plate reader for 1 min.

The subject of data set [10] is HeLa cells. The data set can be described thus: Live cell imaging of EGFP-tubulin expressing HeLa cells. The format is cell-based, Human. As to conditions: 7.5 nM (50% of GI50), 4 h. How it is done: HeLa cells were plated on 35 mm glass-bottomed Mattek dishes (Mattek, code P35G-1.5–14-C). Next day, transient transfection of EGFP-tubulin was performed using a Lipofectamine 2000 (Thermofisher code 11668019) according to the manufacturer’s instructions. After 6 h of transfection, cells were cultured in fresh media overnight before being treated with either 0.1% DMSO or 7.5 nM analogue 33 for 4 h. To visualize chromatin, cells were cultured in the presence the cell permeant NucSpot Live nuclear stain (Biotium code 40082) for 60 min prior to imaging. Cells were imaged live using an Andor Dragonfly 505 spinning disk confocal system mounted on an Olympus IX83 inverted microscope. Cell viability was maintained by an Oko Touch prewarmed (37 °C) temperature-controlled microscope stage supplied with 5% CO2. Z-stacks (10 planes at […] intervals) were acquired every 2 min using a 60× Aprochromat silicon objective (NA 1.30) and an Andor iXon 888 EMCCD camera driven by Andor Fusion software. Fusion IMS files were converted to tiff images and avi movies using FIJI, and figures were prepared in Adobe Photoshop CS5.

Data set [11] concerns HeLa cells. The data set can be described thus: Microtubule organization by immunolabeling in HeLa cells. Particulars: 4 h. The format is cell-based, Human. The method, then: To examine microtubule morphology in rigidin-treated cells, HeLa cells were incubated for 4 h in the presence or absence of test compound before being fixed with 3.7% formaldehyde in PBS and permeabilized with 0.1% Triton X-100 in PBS. After blocking the cells with 3% bovine serum albumin in PBS, they were probed with antibodies for the centromere marker CENP-B (Abcam, code ab25734) and tubulin (Sigma, code sc-53029), which were detected with Alexa Fluor-labeled secondary antibodies (Thermofisher). Hoechst 33342 (1 mg/mL, Thermofisher H3570) was used to stain DNA. Samples were mounted on glass slides and imaged using Andor Dragonfly 505 spinning disk confocal system mounted on an Olympus IX83 inverted microscope. Figures were created with Adobe Photoshop CS5. All drugs were resuspended in DMSO, and 0.1% DMSO served as a carrier control.

“Also recorded” adds a separate entry of the source. Where two headings read alike, the source gives them in different places.

T1 sequence (P02554 whole entry): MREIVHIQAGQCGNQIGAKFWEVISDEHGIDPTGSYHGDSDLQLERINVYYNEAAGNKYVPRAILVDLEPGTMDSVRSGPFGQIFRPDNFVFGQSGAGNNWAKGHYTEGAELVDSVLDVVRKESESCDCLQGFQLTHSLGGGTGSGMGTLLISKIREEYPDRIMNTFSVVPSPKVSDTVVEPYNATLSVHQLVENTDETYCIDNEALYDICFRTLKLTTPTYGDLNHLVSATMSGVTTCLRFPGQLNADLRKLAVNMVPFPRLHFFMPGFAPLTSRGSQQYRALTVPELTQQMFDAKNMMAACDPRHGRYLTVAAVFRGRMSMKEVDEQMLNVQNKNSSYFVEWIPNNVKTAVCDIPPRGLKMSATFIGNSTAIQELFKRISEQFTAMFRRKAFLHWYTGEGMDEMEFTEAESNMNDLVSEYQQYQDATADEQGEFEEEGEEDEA
T1 sequence (P02550 whole entry partner): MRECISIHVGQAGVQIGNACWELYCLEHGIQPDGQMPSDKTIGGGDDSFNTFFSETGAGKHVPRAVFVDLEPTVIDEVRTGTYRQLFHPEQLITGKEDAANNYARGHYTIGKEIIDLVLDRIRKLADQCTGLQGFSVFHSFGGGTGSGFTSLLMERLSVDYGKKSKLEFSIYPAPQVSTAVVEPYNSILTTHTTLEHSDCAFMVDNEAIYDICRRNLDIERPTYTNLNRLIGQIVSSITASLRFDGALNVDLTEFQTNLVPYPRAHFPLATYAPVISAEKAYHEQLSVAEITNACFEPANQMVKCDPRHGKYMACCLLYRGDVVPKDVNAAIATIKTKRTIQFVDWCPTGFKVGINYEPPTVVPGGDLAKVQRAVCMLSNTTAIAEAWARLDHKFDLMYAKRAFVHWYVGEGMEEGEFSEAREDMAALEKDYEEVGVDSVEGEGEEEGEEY

Turning to `C#CCCCc1nc(=O)c2c(-c3ccccc3)c(C(=O)c3ccccc3)[nH]c2[nH]1` [Compound 1, 6-Benzoyl-2-(pent-4-yn-1-yl)-5-phenyl-1,7-dihydro-4H-pyrrolo[2,3-d]pyrimidin-4-one], the GI50 values result in data set [1] is on record as “approaching single-digit nanomolar values”. In data set [2], the “apoptosis at the 30 hour time point (Annexin V fluorescence)” value was “no significant differences” and the “total numbers of cells that died following mitotic arrest” value is listed as 75%. Besides, the GI50 in data set [3] (read-out: PNT1A GI50(mM)) came out at 36 ± 9 nM. In data set [4], the GI50 is 35 nM. Also, the “activity against WI38 compared to four colorectal cancer cell lines” value in [5] is “approximately 1000 fold”. In data set [6], the body weight result was “maintaining body weight”, the side effects entry is reported as “no observable side effects” and the tumor size entry is given as “significant tumor size reduction”.

On to `C#CCCCc1nc(=O)c2c(-c3ccccc3)c(C(=O)c3ccc(OCCOCC)cc3)[nH]c2[nH]1` [Compound 33, 6-[4-(2-Ethoxyethoxy)benzoyl]-2-(pent-4-yn-1-yl)-5-phenyl-1,7-dihydro-4H-pyrrolo[2,3-d]pyrimidin-4-one], for which, in [2], the “apoptosis at the 30 hour time point (Annexin V fluorescence)” value is recorded as “no significant differences”. For the same compound, the “total numbers of cells that died following mitotic arrest” value in data set [2] is listed as 86%. Moreover, the GI50 in data set [3] (molecular formula strings CSV, read-out: PNT1A GI50) worked out at 24 ± 5 nM; in data set [7], 0.015 ± 0.004 µM; in data set [8], 15 nM. Also, the “effect on in vitro tubulin polymerization” value in data set [9] is on record as “potent inhibition of microtubule assembly; also recorded: completely suppress tubulin polymerization”. Moreover, in [10], the “mitotic progression in live cell imaging” value is “various responses ranging from correcting the syntelic attachments and progressing through mitosis to prolonged prometaphase arrest, followed by mitotic exit and/or cell death”. Besides, the “effect on interphase microtubules” value in data set [11] (at GI50 concentrations) is listed as “no striking effects on interphase microtubules”. Also, the “effect on spindle morphology” value in [11] (at GI50 concentrations) is recorded as “remarkable effects on the spindle morphology”. For the same compound, the syntelic chromosome attachments entry in data set [11] (lower concentrations (GI25)) is recorded as “still prevalent”.
